Test results taken from ChEMBL document CHEMBL5506032, “Discovery of 2,6-Naphthyridine Analogues as Selective FGFR4 Inhibitors for Hepatocellular Carcinoma” (J Med Chem, 2024).
One block for each molecule: values may come before it. Calls of active or inactive are those of the source. The calls are words filed in the database; no cut-off is given here.

What was measured:
Huh-7 [1] = assay: Antiproliferative activity against FGFR4 overexpressing human Huh-7 cells assessed as inhibition of cell growth by SRB assay
[2] = biological target: Fibroblast growth factor receptor 4 (Homo sapiens, UniProt P22455); assay: Inhibition of FGFR4 (unknown origin) by Z'-LYTE kinase assay
[3] = biological target: T1, Fibroblast growth factor receptor 1 (Homo sapiens, UniProt P11362); assay: Inhibition of FGFR1 (unknown origin) by Z'-LYTE kinase assay
Target sequence in this assay (P11362 whole entry): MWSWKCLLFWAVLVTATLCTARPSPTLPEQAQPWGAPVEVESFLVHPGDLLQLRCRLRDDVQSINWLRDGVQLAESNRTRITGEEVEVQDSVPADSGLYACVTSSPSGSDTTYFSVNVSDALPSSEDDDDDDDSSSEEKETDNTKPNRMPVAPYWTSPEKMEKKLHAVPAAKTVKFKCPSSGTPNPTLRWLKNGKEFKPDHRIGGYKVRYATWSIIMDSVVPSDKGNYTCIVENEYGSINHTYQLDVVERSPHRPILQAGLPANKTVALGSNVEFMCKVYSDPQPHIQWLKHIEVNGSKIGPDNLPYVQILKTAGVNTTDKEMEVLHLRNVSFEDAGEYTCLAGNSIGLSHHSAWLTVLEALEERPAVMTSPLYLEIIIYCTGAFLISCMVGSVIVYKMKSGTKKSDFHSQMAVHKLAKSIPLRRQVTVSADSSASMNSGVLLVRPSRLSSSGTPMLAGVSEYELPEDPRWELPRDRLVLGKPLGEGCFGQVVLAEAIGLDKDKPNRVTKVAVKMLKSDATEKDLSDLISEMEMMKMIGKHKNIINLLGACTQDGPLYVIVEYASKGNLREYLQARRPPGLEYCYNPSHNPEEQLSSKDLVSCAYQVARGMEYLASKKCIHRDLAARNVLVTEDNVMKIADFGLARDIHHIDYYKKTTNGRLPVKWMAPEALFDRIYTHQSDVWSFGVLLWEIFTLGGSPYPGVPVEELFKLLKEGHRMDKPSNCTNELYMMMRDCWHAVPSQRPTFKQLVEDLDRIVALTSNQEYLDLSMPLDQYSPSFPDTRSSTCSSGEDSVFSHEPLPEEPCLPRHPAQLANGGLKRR

[4] = biological target: T2, Fibroblast growth factor receptor 2 (Homo sapiens, UniProt P21802); assay: Inhibition of FGFR2 (unknown origin) by Z'-LYTE kinase assay
Target sequence in this assay (P21802 whole entry): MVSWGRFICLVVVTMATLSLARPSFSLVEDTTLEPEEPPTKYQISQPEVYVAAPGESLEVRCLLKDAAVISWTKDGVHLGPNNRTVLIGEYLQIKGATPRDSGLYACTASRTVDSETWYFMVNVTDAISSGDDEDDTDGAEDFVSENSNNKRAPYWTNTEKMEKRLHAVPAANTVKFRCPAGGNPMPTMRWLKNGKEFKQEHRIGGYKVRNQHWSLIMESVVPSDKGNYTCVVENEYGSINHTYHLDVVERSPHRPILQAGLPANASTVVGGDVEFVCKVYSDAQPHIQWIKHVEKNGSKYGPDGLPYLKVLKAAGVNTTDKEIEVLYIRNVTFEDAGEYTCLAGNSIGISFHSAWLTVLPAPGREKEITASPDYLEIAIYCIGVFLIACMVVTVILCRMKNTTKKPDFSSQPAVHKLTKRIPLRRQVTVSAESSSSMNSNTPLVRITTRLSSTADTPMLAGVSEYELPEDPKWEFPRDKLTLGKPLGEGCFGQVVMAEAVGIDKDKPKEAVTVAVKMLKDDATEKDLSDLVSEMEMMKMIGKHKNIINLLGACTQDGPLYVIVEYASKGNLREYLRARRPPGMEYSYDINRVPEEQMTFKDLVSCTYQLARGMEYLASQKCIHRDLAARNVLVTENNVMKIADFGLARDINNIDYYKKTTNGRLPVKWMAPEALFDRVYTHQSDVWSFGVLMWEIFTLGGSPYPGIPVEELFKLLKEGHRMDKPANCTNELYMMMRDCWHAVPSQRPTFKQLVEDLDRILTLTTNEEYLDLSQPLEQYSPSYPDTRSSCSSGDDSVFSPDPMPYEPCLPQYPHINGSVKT

[5] = biological target: Fibroblast growth factor receptor 3 (Homo sapiens, UniProt P22607); assay: Inhibition of FGFR3 (unknown origin) by Z'-LYTE kinase assay
Hep 3B2 [6] = assay: Antiproliferative activity against FGF19 amplified human Hep3B cells assessed as inhibition of cell growth by SRB assay
[7] = Antiproliferative activity against FGF19 amplified human JHH7 cells assessed as inhibition of cell growth by SRB assay
Huh-7 [8] = assay: Antitumor activity against human Huh-7 cells xenografted in female BALB/c nude mouse assessed as reduction in tumor volume at 100 mg/kg, po administered twice daily for 15 days; format: functional, organism-based; details: time 15.0 day
[9] = Toxicity in female BALB/c nude mouse xenografted with human Huh-7 cells assessed as effect on body weight at 100 mg/kg, po administered twice daily for 15 days; format: organism-based; details: in vivo, 360 h, time 15 day
[10] = Toxicity in female BALB/c nude mouse xenografted with human Huh-7 cells assessed as clinical signs at 100 mg/kg, po administered twice daily for 15 days; format: organism-based; details: in vivo, 360 h, time 15 day
Hep 3B2 [11] = assay: Growth inhibition of FGF19 amplified and FGFR4 overexpressing human Hep3B cells by SRB assay; format: functional
Huh-7 [12] = assay: Growth inhibition of FGF19 amplified and FGFR4 overexpressing human Huh-7 cells by SRB assay; format: functional
[13] = Growth inhibition of FGF19 amplified and FGFR4 overexpressing human JHH7 cells by SRB assay; format: functional
SNU-387 = assay: Growth inhibition of human SNU-387 cells by SRB assay; format: functional
HepG2 = assay: Growth inhibition of human HepG2 cells by SRB assay; format: functional
PLC-PRF-5 = assay: Growth inhibition of human PLCPRF5 cells by SRB assay; format: functional
RT-112 = assay: Growth inhibition of FGFR3 overexpressing human RT-112 cells by SRB assay; format: functional
[14] = Growth inhibition of human HS27 cells by SRB assay; format: toxicity, cell-based
[15] = biological target: T1, Fibroblast growth factor receptor 1; assay: Inhibition of FGFR1 (unknown origin) at 1 uM relative to control
Target sequence in this assay (P11362 22-822 limits assumed): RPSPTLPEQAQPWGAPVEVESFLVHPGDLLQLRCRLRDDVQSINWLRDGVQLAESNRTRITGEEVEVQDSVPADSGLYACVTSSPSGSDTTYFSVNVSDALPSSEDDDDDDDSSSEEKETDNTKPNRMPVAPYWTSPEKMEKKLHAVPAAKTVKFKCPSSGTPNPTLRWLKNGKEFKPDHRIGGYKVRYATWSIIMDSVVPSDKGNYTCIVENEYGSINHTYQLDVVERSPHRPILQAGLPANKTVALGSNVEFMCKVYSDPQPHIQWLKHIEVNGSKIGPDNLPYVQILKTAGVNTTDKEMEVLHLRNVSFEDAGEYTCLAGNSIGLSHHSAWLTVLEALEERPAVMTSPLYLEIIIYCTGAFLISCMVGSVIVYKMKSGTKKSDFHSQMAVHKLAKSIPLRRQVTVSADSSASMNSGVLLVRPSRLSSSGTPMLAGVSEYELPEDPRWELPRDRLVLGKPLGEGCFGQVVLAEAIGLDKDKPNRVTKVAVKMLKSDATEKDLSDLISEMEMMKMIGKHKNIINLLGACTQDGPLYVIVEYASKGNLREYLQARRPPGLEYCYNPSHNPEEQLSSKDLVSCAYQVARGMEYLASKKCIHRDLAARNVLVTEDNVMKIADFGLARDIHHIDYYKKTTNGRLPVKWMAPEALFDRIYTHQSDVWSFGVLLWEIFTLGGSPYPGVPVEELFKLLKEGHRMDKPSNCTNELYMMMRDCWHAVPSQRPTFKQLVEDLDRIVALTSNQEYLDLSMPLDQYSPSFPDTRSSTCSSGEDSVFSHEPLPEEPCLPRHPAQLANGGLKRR

[16] = biological target: T2, Fibroblast growth factor receptor 2; assay: Inhibition of FGFR2 (unknown origin) at 1 uM relative to control
Target sequence in this assay (P21802 22-821 limits assumed): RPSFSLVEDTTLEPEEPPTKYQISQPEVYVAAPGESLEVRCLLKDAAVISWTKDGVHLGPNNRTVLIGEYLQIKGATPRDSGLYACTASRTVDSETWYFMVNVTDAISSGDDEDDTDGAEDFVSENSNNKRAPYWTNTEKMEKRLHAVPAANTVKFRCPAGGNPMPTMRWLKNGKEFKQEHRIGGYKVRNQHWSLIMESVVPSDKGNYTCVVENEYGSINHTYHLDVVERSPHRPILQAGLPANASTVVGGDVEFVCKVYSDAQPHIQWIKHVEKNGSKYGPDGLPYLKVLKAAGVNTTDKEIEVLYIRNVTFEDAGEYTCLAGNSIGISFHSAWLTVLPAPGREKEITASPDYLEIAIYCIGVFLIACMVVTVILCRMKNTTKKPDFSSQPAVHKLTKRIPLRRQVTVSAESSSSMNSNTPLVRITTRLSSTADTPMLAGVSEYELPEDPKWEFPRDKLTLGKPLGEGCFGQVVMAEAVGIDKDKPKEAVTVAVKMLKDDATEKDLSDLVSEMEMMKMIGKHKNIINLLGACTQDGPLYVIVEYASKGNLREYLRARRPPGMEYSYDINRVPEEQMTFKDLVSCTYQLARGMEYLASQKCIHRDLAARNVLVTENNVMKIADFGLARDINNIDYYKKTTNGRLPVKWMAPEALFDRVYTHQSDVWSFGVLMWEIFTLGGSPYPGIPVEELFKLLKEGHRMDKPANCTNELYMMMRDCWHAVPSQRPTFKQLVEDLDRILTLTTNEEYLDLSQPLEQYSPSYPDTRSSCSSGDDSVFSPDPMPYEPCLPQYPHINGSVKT

[17] = AUC (0 to 24 hrs) in ICR mouse at 5 mg/kg, iv by LC-MS/MS analysis; format: ADME, organism-based; details: in vivo
[18] = Cmax in ICR mouse at 5 mg/kg, iv by LC-MS/MS analysis; format: ADME, organism-based; details: in vivo
[19] = Half-life in ICR mouse at 5 mg/kg, iv by LC-MS/MS analysis; format: ADME, organism-based; details: in vivo
[20] = AUC (0 to 24 hrs) in ICR mouse at 50 mg/kg, po measured after 24 hrs by LC-MS/MS analysis; format: ADME, organism-based; details: in vivo
[21] = Cmax in ICR mouse at 50 mg/kg, po measured after 24 hrs by LC-MS/MS analysis; format: ADME, organism-based; details: in vivo
[22] = Tmax in ICR mouse at 50 mg/kg, po measured after 24 hrs by LC-MS/MS analysis; format: ADME, organism-based; details: in vivo
[23] = Half-life in ICR mouse at 50 mg/kg, po measured after 24 hrs by LC-MS/MS analysis; format: ADME, organism-based; details: in vivo
[24] = Oral bioavailability in ICR mouse at 50 mg/kg measured after 24 hrs by LC-MS/MS analysis; format: ADME, organism-based; details: in vivo
[25] = AUC (0 to 24 hrs) in ICR mouse at 100 mg/kg, po measured after 24 hrs by LC-MS/MS analysis; format: ADME, organism-based; details: in vivo
[26] = Cmax in ICR mouse at 100 mg/kg, po measured after 24 hrs by LC-MS/MS analysis; format: ADME, organism-based; details: in vivo
[27] = Tmax in ICR mouse at 100 mg/kg, po measured after 24 hrs by LC-MS/MS analysis; format: ADME, organism-based; details: in vivo
[28] = Half-life in ICR mouse at 100 mg/kg, po measured after 24 hrs by LC-MS/MS analysis; format: ADME, organism-based; details: in vivo
[29] = Oral bioavailability in ICR mouse at 100 mg/kg measured after 24 hrs by LC-MS/MS analysis; format: ADME, organism-based; details: in vivo
[30] = AUC (0 to 24 hrs) in ICR mouse at 200 mg/kg, po measured after 48 hrs by LC-MS/MS analysis; format: ADME, organism-based; details: in vivo
[31] = Cmax in ICR mouse at 200 mg/kg, po measured after 48 hrs by LC-MS/MS analysis; format: ADME, organism-based; details: in vivo
[32] = Tmax in ICR mouse at 200 mg/kg, po measured after 48 hrs by LC-MS/MS analysis; format: ADME, organism-based; details: in vivo
[33] = Half-life in ICR mouse at 200 mg/kg, po measured after 48 hrs by LC-MS/MS analysis; format: ADME, organism-based; details: in vivo
[34] = Oral bioavailability in ICR mouse at 200 mg/kg measured after 48 hrs by LC-MS/MS analysis; format: ADME, organism-based; details: in vivo
Hep 3B2 [35] = assay: Antitumor activity against human Hep3B cells xenografted in female BALB/c nude ectopic mouse assessed as reduction in tumor volume at 100 mg/kg, po administered twice daily for 15 days; format: functional, organism-based; details: time 15.0 day
Hep 3B-Luc [36] = assay: Antitumor activity against human Hep 3B-Luc cells xenografted in female BALB/c nude mouse assessed as reduction in liver tumor volume at 100 mg/kg, po administered once daily for 7 weeks and measured within 35 days by bioluminescence imaging; format: functional, organism-based; details: time <= 35.0 day
Hep 3B-Luc [37] = assay: Antitumor activity against human Hep 3B-Luc cells xenografted in female BALB/c nude mouse assessed as reduction in liver tumor volume at 100 mg/kg, po administered once daily for 7 weeks and measured after 119 days by bioluminescence imaging; format: functional, organism-based; details: time 119.0 day
[38] = Antitumor activity against human Hep 3B-Luc cells xenografted in female BALB/c nude mouse assessed as survival at 100 mg/kg, po administered once daily for 7 weeks and measured after 119 days relative to control; format: functional; details: 2856 h, time 119 day

Sequence of Fibroblast growth factor receptor 3 (P22607 whole entry): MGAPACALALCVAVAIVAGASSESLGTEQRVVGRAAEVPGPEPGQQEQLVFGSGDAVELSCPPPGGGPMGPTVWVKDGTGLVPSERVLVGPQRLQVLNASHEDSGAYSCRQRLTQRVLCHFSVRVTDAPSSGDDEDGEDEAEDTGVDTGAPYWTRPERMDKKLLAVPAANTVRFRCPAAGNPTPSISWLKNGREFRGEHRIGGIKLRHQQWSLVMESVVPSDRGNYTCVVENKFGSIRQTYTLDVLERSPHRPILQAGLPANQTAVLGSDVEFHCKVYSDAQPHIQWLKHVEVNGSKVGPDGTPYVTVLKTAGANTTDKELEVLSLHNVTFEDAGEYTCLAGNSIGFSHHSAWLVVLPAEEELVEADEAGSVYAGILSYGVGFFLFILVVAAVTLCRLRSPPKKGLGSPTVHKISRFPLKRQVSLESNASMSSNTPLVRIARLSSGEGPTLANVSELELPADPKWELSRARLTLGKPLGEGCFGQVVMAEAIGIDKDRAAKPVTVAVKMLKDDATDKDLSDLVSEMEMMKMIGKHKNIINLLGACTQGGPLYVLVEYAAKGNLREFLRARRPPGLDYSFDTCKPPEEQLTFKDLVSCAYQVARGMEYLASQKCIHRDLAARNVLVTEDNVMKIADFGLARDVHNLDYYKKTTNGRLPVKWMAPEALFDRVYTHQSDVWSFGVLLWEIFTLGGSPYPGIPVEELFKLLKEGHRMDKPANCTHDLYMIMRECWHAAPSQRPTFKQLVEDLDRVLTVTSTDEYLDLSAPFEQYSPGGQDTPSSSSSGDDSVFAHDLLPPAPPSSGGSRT
Sequence of Fibroblast growth factor receptor 4 (P22455 whole entry): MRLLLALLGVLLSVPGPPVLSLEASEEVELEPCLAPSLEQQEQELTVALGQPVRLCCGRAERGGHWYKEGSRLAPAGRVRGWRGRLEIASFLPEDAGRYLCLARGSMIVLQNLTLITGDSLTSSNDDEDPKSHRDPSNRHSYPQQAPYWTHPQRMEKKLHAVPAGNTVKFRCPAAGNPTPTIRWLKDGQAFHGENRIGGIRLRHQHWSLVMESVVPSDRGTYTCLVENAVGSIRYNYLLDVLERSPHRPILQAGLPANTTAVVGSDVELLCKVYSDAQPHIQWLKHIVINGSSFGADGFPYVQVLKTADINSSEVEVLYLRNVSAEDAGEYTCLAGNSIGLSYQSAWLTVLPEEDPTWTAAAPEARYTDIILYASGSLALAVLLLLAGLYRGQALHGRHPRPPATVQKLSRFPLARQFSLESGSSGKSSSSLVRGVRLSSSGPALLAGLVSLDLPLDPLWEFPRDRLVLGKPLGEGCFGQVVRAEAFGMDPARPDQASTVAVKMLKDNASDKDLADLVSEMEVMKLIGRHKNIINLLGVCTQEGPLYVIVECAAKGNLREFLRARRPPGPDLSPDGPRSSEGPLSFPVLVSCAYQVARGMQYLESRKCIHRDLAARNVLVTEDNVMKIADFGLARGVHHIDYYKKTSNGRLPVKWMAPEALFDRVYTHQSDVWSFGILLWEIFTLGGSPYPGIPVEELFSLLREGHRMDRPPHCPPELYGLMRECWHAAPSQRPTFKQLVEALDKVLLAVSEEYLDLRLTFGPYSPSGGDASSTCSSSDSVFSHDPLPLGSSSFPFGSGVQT

Structure (SMILES): C=CC(=O)Nc1cccc(F)c1Nc1cc2cnc(-c3c(F)c(OC)cc(OC)c3F)cc2cn1
IC50 (Huh-7 [1]): 140 nM

Structure (SMILES): C=CC(=O)Nc1ccccc1Nc1cc2c(-c3ccco3)nc(-c3c(Cl)c(OC)cc(OC)c3Cl)cc2cn1
IC50 (Huh-7 [1]): 110 nM

Structure (SMILES): C=CC(=O)Nc1ccc(N2CCN(CC)CC2)c(F)c1Nc1cc2cnc(-c3c(F)c(OC)cc(OC)c3F)cc2cn1
IC50 (Huh-7 [1]): 137 nM

Structure (SMILES): C=CC(=O)N[C@H]1CCOC[C@H]1Nc1ncc2cc(-c3c(Cl)c(OC)cc(OC)c3Cl)ccc2n1 [FISOGATINIB]
IC50 (Huh-7 [1]): 81 nM
IC50 [2]: 53 nM
IC50 [3]: 1840 nM
IC50 [4]: 2500 nM
IC50 [5]: > 10000 nM
IC50 (Hep 3B2 [6]): 122 nM
IC50 [7]: 161 nM
Activity (Huh-7 [8]): Active
Activity [9]: Non-Toxic
Activity [10]: Non-Toxic

Structure (SMILES): C=CC(=O)Nc1cccc(C)c1Nc1ncc2cc(-c3c(Cl)c(OC)cc(OC)c3Cl)ccc2n1
IC50 (Huh-7 [1]): 191 nM

Structure (SMILES): C=CC(=O)Nc1cc(C)ccc1Nc1cc2cnc(-c3c(Cl)c(OC)cc(OC)c3Cl)cc2cn1
IC50 (Huh-7 [1]): 125 nM

Structure (SMILES): C=CC(=O)Nc1cccc(F)c1Nc1cc2cnc(-c3c(Cl)c(OC)cc(OC)c3Cl)cc2cn1
IC50 (Huh-7 [1]): 220 nM

Structure (SMILES): C=CC(=O)Nc1cccc(C)c1Nc1cc2cnc(-c3c(Cl)c(OC)cc(OC)c3Cl)cc2cn1
IC50 (Huh-7 [1]): 212 nM

Structure (SMILES): C=CC(=O)Nc1cc2c(cc1Nc1cc3cnc(-c4c(Cl)c(OC)cc(OC)c4Cl)cc3cn1)CCC2
IC50 (Huh-7 [1]): 113 nM

Structure (SMILES): C=CC(=O)Nc1ccccc1Nc1cc2c(C)nc(-c3c(Cl)c(OC)cc(OC)c3Cl)cc2cn1
IC50 (Huh-7 [1]): 19 nM
IC50 [3]: 1260 nM
IC50 [4]: 3270 nM
IC50 [5]: > 10000 nM
IC50 (Hep 3B2 [6]): 16 nM
IC50 [7]: 33 nM
GI50 (Hep 3B2 [11]): 16 nM
GI50 (Huh-7 [12]): 16 nM
GI50 [13]: 16 nM
GI50 (SNU-387): 251 nM
GI50 (HepG2): 335 nM
GI50 (PLC-PRF-5): 598 nM
GI50 (RT-112): 151 nM
GI50 [14]: 913 nM
inhibition [15]: > 85%
inhibition [16]: > 85%
AUC(0-t) [17]: 4810 ng·h/mL
Cmax [18]: 8140 ng/mL
half-life [19]: 1.7 h
AUC(0-t) at 24 h [20]: 27300 ng·h/mL
Cmax [21]: 11200 ng/mL
Tmax [22]: 1 h
half-life [23]: 4.4 h
bioavailability [24]: 56.8%
AUC(0-t) at 24 h [25]: 59500 ng·h/mL
Cmax [26]: 24600 ng/mL
Tmax [27]: 0.5 h
half-life [28]: 3.9 h
bioavailability [29]: 61.9%
AUC(0-t) at 48 h [30]: 102000 ng·h/mL
Cmax [31]: 40700 ng/mL
Tmax [32]: 1 h
half-life [33]: 8.6 h
bioavailability [34]: 53.2%
Activity (Huh-7 [8]): Active
Activity [9]: Non-Toxic
Activity [10]: Non-Toxic
Activity (Hep 3B2 [35]): Active
Activity (Hep 3B-Luc [36]): Active
Activity (Hep 3B-Luc [37]): Active
survival at 100 mg/kg [38]: > 90%

Further lines, results first:

IC50 (Huh-7 [1]): 68 nM
Structure (SMILES): C=CC(=O)Nc1ccccc1Nc1cc2c(-c3cccnc3)nc(-c3c(Cl)c(OC)cc(OC)c3Cl)cc2cn1

IC50 (Huh-7 [1]): 37 nM
Structure (SMILES): C=CC(=O)Nc1ccc(C)cc1Nc1cc2cnc(-c3c(Cl)c(OC)cc(OC)c3Cl)cc2cn1

IC50 (Huh-7 [1]): 67 nM
Structure (SMILES): C=CC(=O)Nc1ccccc1Nc1cc2c(C3CC3)nc(-c3c(Cl)c(OC)cc(OC)c3Cl)cc2cn1

IC50 (Huh-7 [1]): 36 nM
Structure (SMILES): C=CC(=O)Nc1ccccc1Nc1cc2c(CC)nc(-c3c(Cl)c(OC)cc(OC)c3Cl)cc2cn1

IC50 (Huh-7 [1]): 50 nM
Structure (SMILES): C=CC(=O)Nc1ccccc1Nc1cc2c(-c3cnn(C)c3)nc(-c3c(Cl)c(OC)cc(OC)c3Cl)cc2cn1

IC50 (Huh-7 [1]): 61 nM
Structure (SMILES): C=CC(=O)Nc1ccccc1Nc1cc2c(-c3ccc[nH]3)nc(-c3c(Cl)c(OC)cc(OC)c3Cl)cc2cn1

IC50 (Huh-7 [1]): 25 nM
Structure (SMILES): C=CC(=O)Nc1ccccc1Nc1cc2cnc(-c3c(F)c(OC)cc(OC)c3F)cc2cn1

IC50 (Huh-7 [1]): 23 nM
IC50 [3]: 506 nM
IC50 [4]: 281 nM
IC50 [5]: 4630 nM
Structure (SMILES): C=CC(=O)Nc1ccccc1Nc1cc2cnc(-c3c(Cl)c(OC)cc(OC)c3Cl)cc2cn1

IC50 (Huh-7 [1]): 80 nM
Structure (SMILES): C=CC(=O)Nc1cc(N2CCOCC2)ccc1Nc1cc2cnc(-c3c(Cl)c(OC)cc(OC)c3Cl)cc2cn1

IC50 (Huh-7 [1]): 69 nM
Structure (SMILES): C=CC(=O)Nc1ccccc1Nc1cc2c(-c3ccccc3)nc(-c3c(Cl)c(OC)cc(OC)c3Cl)cc2cn1
